The values below come from PubChem BioAssay AID330 (DTP/NCI, 2004).

The subject of the test is P388 leukemia ip, CD2F1 mice, survival T/C. In words: NCI In Vivo Anticancer Drug Screen. Data for tumor model P388 Leukemia (intraperitoneal) in CD2F1 (CDF1) mice. The following applies: endpoint: median survival time, higher = longer survival. The method, boiled down:
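Mice carrying the transplanted tumor received test compound or vehicle. Survival was recorded in each group, and the value is the treated-group measurement divided by that of the vehicle-treated control group.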

[1] abbreviates: dose: 12.5 mg/kg/injection, schedule: Q01DX005 (ip), vehicle: saline with Tween-80.
[2] abbreviates: dose: 25.0 mg/kg/injection, schedule: Q01DX005 (ip), vehicle: saline with Tween-80.
[3] abbreviates: dose: 50.0 mg/kg/injection, schedule: Q01DX005 (ip), vehicle: saline with Tween-80.
Setting [4] is: dose: 50.0 mg/kg/injection, schedule: Q01DX009 (ip), vehicle: Klucel (hydroxypropylcellulose) (HPC).
Setting [5] is: dose: 50.0 mg/kg/injection, schedule: Q01DX009 (ip), vehicle: saline.
[6] abbreviates: dose: 200.0 mg/kg/injection, schedule: Q01DX005 (ip), vehicle: saline with Tween-80.
Where [7] appears, read: dose: 25.0 mg/kg/injection, schedule: Q01DX001 (ip), vehicle: saline with Tween-80.
The mark [8] stands for this setting: dose: 50.0 mg/kg/injection, schedule: Q01DX001 (ip), vehicle: saline with Tween-80.
Where [9] appears, read: dose: 100.0 mg/kg/injection, schedule: Q01DX001 (ip), vehicle: saline with Tween-80.

Where “and” joins values, the source holds several entries; their conditions need not be identical. Equal values may be shown once. Toxic doses and inconclusive results are not listed.

For the compound `Cc1c(C(=O)NCCN(C)C)n(C)c(=O)c2ccccc12`, the T/C reads like this: (dose: 60.0 mg/kg/injection, schedule: Q01DX005 (ip), vehicle: saline) 98 % of control; (dose: 120.0 mg/kg/injection, schedule: Q01DX005 (ip), vehicle: saline) 93 % of control; (dose: 240.0 mg/kg/injection, schedule: Q01DX005 (ip), vehicle: saline) 94 % of control.
On to `N#CC1OC1c1cccnc1` (stereo not given), for which the T/C was 105 % of control and 111 % of control under setting [1]; 105 % of control and 106 % of control under setting [2]; 121 % of control under setting [3].
On to `CC(=O)OC(C[Se]c1ccccc1)OC(C)=O`, for which the T/C by setting is: (dose: 37.5 mg/kg/injection, schedule: Q01DX001 (ip), vehicle: saline with Tween-80) 105 % of control; (dose: 75.0 mg/kg/injection, schedule: Q01DX001 (ip), vehicle: saline with Tween-80) 99 % of control and 105 % of control.
As to `O=[N+]([O-])c1cccc(/C=C/C=C/c2cccc(S(=O)(=O)F)c2)c1`, the T/C (dose: 100.0 mg/kg/injection, schedule: Q01DX009 (ip), vehicle: saline with Tween-80) is 90 % of control; the T/C (dose: 200.0 mg/kg/injection, schedule: Q01DX009 (ip), vehicle: saline with Tween-80) is 86 % of control; the T/C (dose: 400.0 mg/kg/injection, schedule: Q01DX009 (ip), vehicle: saline with Tween-80) was 86 % of control.
As to `Cn1cc(C2=C(Cl)C(=O)N(c3cc(Cl)cc(Cl)c3)C2=O)c(=O)n(C)c1=O`, the T/C (dose: 15.0 mg/kg/injection, schedule: Q01DX005 (ip), vehicle: Klucel (hydroxypropylcellulose) (HPC)) is 99 % of control; the T/C (dose: 30.0 mg/kg/injection, schedule: Q01DX005 (ip), vehicle: Klucel (hydroxypropylcellulose) (HPC)) is 99 % of control; the T/C (dose: 60.0 mg/kg/injection, schedule: Q01DX005 (ip), vehicle: Klucel (hydroxypropylcellulose) (HPC)) was 111 % of control.
For `CC(NC(=O)/C=C/c1ccco1)C(=O)NC(Cc1ccccc1)C(N)=O` (stereo not given), the T/C by setting is: (dose: 50.0 mg/kg/injection, schedule: Q01DX005 (ip), vehicle: Klucel (hydroxypropylcellulose) (HPC)) 104 % of control; (dose: 100.0 mg/kg/injection, schedule: Q01DX005 (ip), vehicle: Klucel (hydroxypropylcellulose) (HPC)) 106 % of control; (dose: 200.0 mg/kg/injection, schedule: Q01DX005 (ip), vehicle: Klucel (hydroxypropylcellulose) (HPC)) 104 % of control.
In the case of `ClC(=Nc1ccccc1)c1ccccn1`, the T/C is 101 % of control (dose: 12.5 mg/kg/injection, schedule: Q01DX009 (ip), vehicle: Klucel (hydroxypropylcellulose) (HPC)); 101 % of control (dose: 25.0 mg/kg/injection, schedule: Q01DX009 (ip), vehicle: Klucel (hydroxypropylcellulose) (HPC)); 96 % of control under setting [4].
In the case of `O=C(CC(=O)C(F)(F)F)c1cccs1.O=C(CC(=O)C(F)(F)F)c1cccs1.O=C(CC(=O)C(F)(F)F)c1cccs1.[Tb]`, the T/C by setting is: under setting [5], 86 % of control; (dose: 100.0 mg/kg/injection, schedule: Q01DX009 (ip), vehicle: saline) 86 % of control; (dose: 200.0 mg/kg/injection, schedule: Q01DX009 (ip), vehicle: saline) 89 % of control.
Regarding `CNC(=O)OCc1c(COC(=O)NC)c(-c2cc(F)ccc2F)n2c1CCC2`, the T/C was 151 % of control (dose: 12.5 mg/kg/injection, schedule: Q01DX009 (ip), vehicle: distilled water + Tween-80); 155 % of control and 156 % of control (dose: 25.0 mg/kg/injection, schedule: Q01DX009 (ip), vehicle: distilled water + Tween-80).
Regarding `Cn1c(=O)[nH]c(N)c(NC=O)c1=O`, the T/C under setting [3] was 103 % of control; the T/C (dose: 100.0 mg/kg/injection, schedule: Q01DX005 (ip), vehicle: saline with Tween-80) was 101 % of control; the T/C under setting [6] is 101 % of control.
In the case of `CCn1cc(C(=O)NC(C)C(=O)NC(C)P(=O)(O)O)c(=O)c2ccc(C)nc21` (stereo not given), the T/C was 101 % of control (dose: 100.0 mg/kg/injection, schedule: Q04DX002 (ip), vehicle: saline with Tween-80); 102 % of control (dose: 200.0 mg/kg/injection, schedule: Q04DX002 (ip), vehicle: saline with Tween-80); 101 % of control (dose: 400.0 mg/kg/injection, schedule: Q04DX002 (ip), vehicle: saline with Tween-80).
With `O=C(Cc1ccccc1)c1ccccc1`, the T/C reads like this: (dose: 100.0 mg/kg/injection, schedule: Q04DX003 (ip), vehicle: saline with Tween-80) 98 % of control; (dose: 200.0 mg/kg/injection, schedule: Q04DX003 (ip), vehicle: saline with Tween-80) 100 % of control; (dose: 400.0 mg/kg/injection, schedule: Q04DX003 (ip), vehicle: saline with Tween-80) 100 % of control.
`C/C(N=NC(=S)N1CCSCC1)=C1\C=CC=CN1O`: the T/C is 97 % of control under setting [1]; 100 % of control under setting [2]; 107 % of control and 97 % of control under setting [3]; 102 % of control under setting [6].
As to `C#CCC(N)C(=O)O` (stereo not given), the T/C (dose: 12.5 mg/kg/injection, schedule: Q01DX005 (ip), vehicle: saline) was 107 % of control; the T/C (dose: 25.0 mg/kg/injection, schedule: Q01DX005 (ip), vehicle: saline) is 111 % of control; the T/C (dose: 50.0 mg/kg/injection, schedule: Q01DX005 (ip), vehicle: saline) is 100 % of control and 106 % of control; the T/C (dose: 100.0 mg/kg/injection, schedule: Q01DX005 (ip), vehicle: saline) is 108 % of control.
In the case of `Cc1ccc(S(=O)(=O)OCC(C)(C)COS(=O)(=O)c2ccc(C)cc2)cc1`, the T/C (dose: 3.13 mg/kg/injection, schedule: Q01DX009 (ip), vehicle: saline with Tween-80) was 103 % of control; the T/C (dose: 6.25 mg/kg/injection, schedule: Q01DX009 (ip), vehicle: saline with Tween-80) is 103 % of control; the T/C (dose: 12.5 mg/kg/injection, schedule: Q01DX009 (ip), vehicle: saline with Tween-80) was 105 % of control; the T/C (dose: 25.0 mg/kg/injection, schedule: Q01DX009 (ip), vehicle: saline with Tween-80) is 106 % of control.
With `COc1ccc(C(=O)NCCN2CCN3Cc4[nH]c5ccccc5c4CC3C2)cc1` (stereo not given), the T/C by setting is: under setting [7], 95 % of control; under setting [8], 97 % of control; under setting [9], 95 % of control and 98 % of control.
For the compound `O=NNc1ccc([N+](=O)[O-])cn1`, the T/C (dose: 3.12 mg/kg/injection, schedule: Q01DX009 (ip), vehicle: water) is 107 % of control; the T/C (dose: 6.25 mg/kg/injection, schedule: Q01DX009 (ip), vehicle: saline) is 106 % of control and 96 % of control; the T/C (dose: 6.25 mg/kg/injection, schedule: Q01DX009 (ip), vehicle: water) was 96 % of control; the T/C (dose: 12.5 mg/kg/injection, schedule: Q01DX009 (ip), vehicle: saline) is 122 % of control and 123 % of control; the T/C (dose: 12.5 mg/kg/injection, schedule: Q01DX009 (ip), vehicle: water) was 102 % of control; the T/C (dose: 25.0 mg/kg/injection, schedule: Q01DX009 (ip), vehicle: water) is 105 % of control and 88 % of control. Also, under setting [5], the T/C is 176 % of control.
`COc1ccc2c(=O)c3cc([N+](=O)[O-])ccc3n(C)c2c1`: the T/C (dose: 12.5 mg/kg/injection, schedule: Q01DX001 (ip), vehicle: saline with Tween-80) was 100 % of control; the T/C under setting [7] is 97 % of control; the T/C under setting [8] was 94 % of control; the T/C under setting [9] was 94 % of control.
Consider `NC1=C(O)C(=O)C(c2cccc(O)c2)O1` (stereo not given), for which the T/C by setting is: (dose: 60.0 mg/kg/injection, schedule: Q01DX005 (ip), vehicle: saline with Tween-80) 103 % of control; (dose: 120.0 mg/kg/injection, schedule: Q01DX005 (ip), vehicle: saline with Tween-80) 100 % of control; (dose: 240.0 mg/kg/injection, schedule: Q01DX005 (ip), vehicle: saline with Tween-80) 103 % of control.
As for `COC(=O)NCP(=S)(CNC(=O)OC)CNC(=O)OC`, the T/C runs as follows: under setting [4], 105 % of control; (dose: 100.0 mg/kg/injection, schedule: Q01DX009 (ip), vehicle: Klucel (hydroxypropylcellulose) (HPC)) 96 % of control; (dose: 200.0 mg/kg/injection, schedule: Q01DX009 (ip), vehicle: Klucel (hydroxypropylcellulose) (HPC)) 95 % of control.
For `COC(=O)[C@@]12OC[C@]34[C@H]([C@@H](O)[C@@H]1O)[C@@]1(C)CC(=O)C(O)=C(C)[C@@H]1C[C@H]3OC(=O)[C@H](OC(=O)C(Cc1ccccc1)NC(=O)OC(C)(C)C)[C@@H]24` (stereo not given in full), the T/C was 113 % of control (dose: 125.0 micrograms/kg/injection, schedule: Q01DX005 (ip), vehicle: Klucel (hydroxypropylcellulose) (HPC)); 100 % of control (dose: 250.0 micrograms/kg/injection, schedule: Q01DX005 (ip), vehicle: Klucel (hydroxypropylcellulose) (HPC)); 116 % of control (dose: 500.0 micrograms/kg/injection, schedule: Q01DX005 (ip), vehicle: Klucel (hydroxypropylcellulose) (HPC)); 114 % of control (dose: 1000.0 micrograms/kg/injection, schedule: Q01DX005 (ip), vehicle: Klucel (hydroxypropylcellulose) (HPC)).
